Test system: Microphthalmia-associated transcription factor (MITF)
Experiment: MITF and phosphorylated MITF in B16 cells (Western)
Assay type: cell-based, mouse
Conditions: 2 h; for (Phosphorylated MITF)/(MITF): control 0.90; for Phosphorylated MITF / MITF: β-actin regarded as 100%; for Phosphorylated MITF: control 73; for MITF: control 81
Method: Test solutions were prepared by dissolving ascorbic acid 2-glucoside (a reagent grade specimen commercialized by Hayashibara Co., Ltd., Okayama, Japan) or L-ascorbic acid (a special reagent grade specimen commercialized by Wako Pure Chemical Industries, Ltd., Tokyo, Japan) in Dulbecco's MEM medium supplemented with 10% v/v fetal calf serum and an antibiotic (abbreviated as “D-MEM medium”, hereinafter) to give a final concentration of 2.0 or 8.0 mM.
Continuously-cultivated B16 cells in D-MEM medium were collected, resuspended in D-MEM medium, inoculated to 6-well plates in an amount of 1×10^5 cells/2 mL/well, and cultured for 24 hours. Thereafter, the culture supernatants were removed by sucking, and any of the test solutions was added to each plate in a volume of 2 mL/well, followed by culturing the cells for two hours. As a control, cells in other plates were added with only D-MEM medium in a volume of 2 mL/plate and cultured for two hours. To each plate, which had been removed its culture supernatant, an ice-chilled Dulbecco's PBS (−), commercialized by Nissui Pharmaceutical Co., Ltd., Tokyo, Japan, was added to wash cells, and the resulting cells were added with a SDS-sample buffer containing 62.5 mM Tris-HCl (pH 6.8), 2% w/v SDS, 10% w/v glycerol, 50 mM dithiothreitol (DTT), and 0.01% w/v bromophenol blue in a volume of 0.1 mL/well, and collected with a scraper. The resulting cell suspension was treated with an ultrasonicator, commercialized by Osminics Inc., Minnesota, USA, and subjected to SDS-polyacrylamide gel electrophoresis. The proteins in the gel were electrically transferred to a nitrocellulose membrane and allowed to sequentially react with a first antibody (Anti-phospho-MITF […] or Anti MITF), a secondary antibody, and LumiGLO™ in this order, followed by allowing to expose an X-ray film for detecting MITF positive bands. The bands thus detected were subjected to band strength analysis using Scion Image to determine the quantity of MITF and phosphorylated MITF. For every B16 cell culture, a 5% v/v CO2 incubator was used. Relative amounts of MITF and phosphorylated MITF and the ratio of phosphorylated MITF against MITF were determined when the level of β-actin in B16 cells upon culturing with each of the test solutions was regarded as 100%.

For O=C1O[C@H]([C@@H](O)CO)C(O)=C1O[C@H]1O[C@H](CO)[C@@H](O)[C@H](O)[C@H]1O [ascorbic acid 2-glucoside, 2-O-α-D-glucosyl-L-ascorbic acid], the “(Phosphorylated MITF)/(MITF)” value (2.0 mM) was 0.60, the “Phosphorylated MITF” value (2.0 mM) was 59% and the MITF (2.0 mM) was 99%. The “(Phosphorylated MITF)/(MITF)” value (8.0 mM) was 0.36, the “Phosphorylated MITF” value (8.0 mM) was 36% and the MITF (8.0 mM) was 101%.

Source: patent US10111822B2, “External dermal composition for anti-ageing and method for producing the same” (Hayashibara Co., Ltd., priority 2012, dated 2018)
